Measured values: BindingDB's records for doi:10.1016/j.bmcl.2016.03.078 (Merck Research Laboratories, 2016)

Molecular target: E3 ubiquitin-protein ligase Mdm2 (Homo sapiens, UniProt Q00987)
Test: Displacement of Ac-Phe-Arg-Dpr(fluorophore)-Ac6c-(6-Br)Trp-Glu-Glu-Leu-NH2 from human N-terminal His6-tagged MDM2 (17 to 125 residues) expressed in Escherichia coli by fluorescence polarization assay

Sequence of E3 ubiquitin-protein ligase Mdm2 (Q00987 whole entry, the tested form may be a part): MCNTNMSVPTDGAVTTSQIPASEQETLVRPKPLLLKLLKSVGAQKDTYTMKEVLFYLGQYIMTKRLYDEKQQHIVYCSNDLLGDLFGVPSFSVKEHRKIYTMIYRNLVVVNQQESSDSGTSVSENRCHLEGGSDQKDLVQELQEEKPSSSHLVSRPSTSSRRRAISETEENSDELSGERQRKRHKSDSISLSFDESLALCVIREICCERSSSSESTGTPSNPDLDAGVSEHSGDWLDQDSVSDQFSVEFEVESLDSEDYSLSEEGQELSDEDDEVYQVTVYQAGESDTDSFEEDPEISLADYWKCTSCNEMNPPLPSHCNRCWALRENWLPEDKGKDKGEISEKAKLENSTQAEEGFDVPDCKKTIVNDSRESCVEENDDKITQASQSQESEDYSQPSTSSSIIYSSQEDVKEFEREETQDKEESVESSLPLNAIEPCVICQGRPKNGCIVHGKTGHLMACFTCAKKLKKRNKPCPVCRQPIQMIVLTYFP

Question: How did the IC50 turn out when `O=C(c1cnccc1C(F)(F)F)N1CCCC(Oc2ccc(C(F)(F)F)cc2)(C(=O)N2CCN(c3ccccn3)CC2)C1` (stereo unspecified) was run?
Answer: 2300 nM
